Test results as given in patent US8263605B2, “Modulators of muscarinic receptors” (Vertex Pharmaceutical Incorporated, priority 2006, dated 2012).

What was measured:
M1 muscarinic receptor = target: T1, M1 muscarinic receptor (Homo sapiens, UniProt P11229); experiment: Functional mobilization of intracellular calcium (FLIPR), M1-CHO cells; type: cell-based; conditions: for Emax: 100% efficacy is the maximum response obtained with the Carbachol control; for M1 Activity: CHO cells expressing M1, calcium mobilization
T1 construct: expressed in transfected cells; host or cells: CHO (M1-CHO)
T1 sequence (P11229 1-460): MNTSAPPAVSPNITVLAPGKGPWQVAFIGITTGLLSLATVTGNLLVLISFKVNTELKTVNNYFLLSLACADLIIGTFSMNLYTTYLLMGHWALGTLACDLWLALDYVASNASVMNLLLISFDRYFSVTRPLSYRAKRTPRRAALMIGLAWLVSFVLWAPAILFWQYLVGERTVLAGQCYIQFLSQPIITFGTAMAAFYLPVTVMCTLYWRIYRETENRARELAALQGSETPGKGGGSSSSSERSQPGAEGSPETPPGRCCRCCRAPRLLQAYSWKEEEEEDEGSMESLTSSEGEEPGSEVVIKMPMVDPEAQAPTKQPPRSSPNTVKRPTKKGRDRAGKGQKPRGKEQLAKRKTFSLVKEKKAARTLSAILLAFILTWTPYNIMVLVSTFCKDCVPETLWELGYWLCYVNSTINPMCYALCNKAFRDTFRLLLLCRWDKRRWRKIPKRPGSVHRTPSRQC
Description: (§1) Functional Mobilization of Intracellular Calcium to Determine Muscarinic Receptor Activity:
(§2) CHO cells expressing muscarinic receptors (M1 to M5) are grown as monolayers in tissue culture flasks at 37° C. in a humidified atmosphere containing 5% CO2 and passaged every 3-5 days. The growth media is Dulbecco's modified eagles medium (DMEM, Gibco Cat#12430-054), containing 25 mM Hepes and supplemented with Fetal Bovine Serum (Hyclone, cat# SH30071.03), 0.1 mM of MEM non-essential amino acids (GIBCO, Cat#11140-050), 1 mM MEM Sodium Pyruvate (GIBCO Cat#11360-070) and 100 units/ml of Penicillin G and 100 μg/ml of Streptomycin (GIBCO Cat#15140-122). The recombinant muscarinic receptor cell lines are grown under antibiotic pressure with media containing 25 μg/ml zeocin and 500 μg/ml G418 (M1-CHO), 4 μg/ml puromycin, 50 μg/ml zeocin and 2.5 μg/ml blasticidin (M2 and M4-CHO) or 50 μg/ml zeocin and 4 μg/ml puromycin (M3 and M5-CHO).
(§3) Cells are harvested at 80-90% confluence using Versene (GIBCO Cat#15040-066), collected by centrifugation and seeded 18-24 hours prior to running the calcium assay at a density of 5,000-10,000 cells/well in […], clear-bottomed 384-well plates (BD Biocoat, poly-D-lysine, Cat#356663). The day of the experiment, the cells are washed with a plate washer (Bioteck Instrunents, ELX 405) using bath 1 buffer (140-mM NaCl, 4.5-mM KCl, 2-mM CaCl2, 1-mM MgCl2, 10-mM Hepes-Na, 10-mM Glucose, pH 7.4, with NaOH) containing 1 mM Probenecid. Next, the calcium dye Fluo-3 (25 μl/well of Fluo-3 AM at 4 μM, Molecular Probes F-1241, in Bath 1 buffer containing 1 mM Probenecid) is added to the 25 μl of Bath 1 remaining in each well after the plate wash and the dye is loaded at 37° C. in the tissue culture incubator for 60-90 min. The fluorescent dye is removed using the plate washer with Bath 1 containing 1 mM Probenecid, leaving 25 μl/well of this solution after the wash. Alternatively, cells can be loaded with the calcium indicator from Molecular Devices (Calcium 3 Assay Reagents, Cat # R7181) adding 5 μl of a 5× solution dye in Bath 1 containing 1 mM Probenecid (10 ml per dye flask cat# R7182 to generate a solution 20×) to 20 μl of the same buffer. After loading for 60 min, the experiment can be run without having to remove the dye.
(§4) Compounds are prepared at a 2× fold concentration in a 96-well plate (round bottom, Costar Corning cat#3656), by reconstituting the pre-spotted compounds in bath 1 containing 1 mM probenecid. The final concentration DMSO is 0.5%, and the amount of DMSO is normalized across the assay plate. To determine an agonist action of the compounds on muscarinic receptors, the reconstituted compounds are added (25 μl compound/well) to the cell assay plate (containing 25 μl/well) using the multi-channel robotic system of the FLIPR 3 Instrument (Molecular Devices, Sunnyvale, Calif.). To determine a functional inhibitory action of the compounds on muscarinic receptors, the reconstituted compounds are added (25 μl compound/well) to the assay plate and pre-incubated for 15 min prior to adding 25 μl of Carbachol at 3× the EC80 for each muscarinic subtype. Alternatively, the compounds can be co-applied simultaneously with the agonist. In both assay modes, the fluorescence is recorded for 60 sec (excitation wavelength is […] and emission wavelength 540 nm) using the FLIPR 3 instrument.
(§5) The potency, efficacy and selectivity of the muscarinic compounds were evaluated by screening the compound activity across the whole family (M1 to M5 cells). Compounds were also screened for activity on other proteins such as other GPCRs and ion channels to determine selectivity on M4 receptors.
(§6) Examples of activities and efficacies of the muscarinic compounds of formulae (I, Ia, Ib, Ic, Id, and Ie) on modulating M1 and M4 receptors are shown below in Table 4. […]

M4 muscarinic receptor = target: T2, M4 muscarinic receptor (Homo sapiens, UniProt P08173); experiment: Functional mobilization of intracellular calcium (FLIPR), M4-CHO cells; type: cell-based; conditions: for Emax: 100% efficacy is the maximum response obtained with the Carbachol control; for M4 Activity: CHO cells expressing M4, calcium mobilization
T2 construct: expressed in transfected cells; host or cells: CHO (M4-CHO)
T2 sequence (P08173 1-479): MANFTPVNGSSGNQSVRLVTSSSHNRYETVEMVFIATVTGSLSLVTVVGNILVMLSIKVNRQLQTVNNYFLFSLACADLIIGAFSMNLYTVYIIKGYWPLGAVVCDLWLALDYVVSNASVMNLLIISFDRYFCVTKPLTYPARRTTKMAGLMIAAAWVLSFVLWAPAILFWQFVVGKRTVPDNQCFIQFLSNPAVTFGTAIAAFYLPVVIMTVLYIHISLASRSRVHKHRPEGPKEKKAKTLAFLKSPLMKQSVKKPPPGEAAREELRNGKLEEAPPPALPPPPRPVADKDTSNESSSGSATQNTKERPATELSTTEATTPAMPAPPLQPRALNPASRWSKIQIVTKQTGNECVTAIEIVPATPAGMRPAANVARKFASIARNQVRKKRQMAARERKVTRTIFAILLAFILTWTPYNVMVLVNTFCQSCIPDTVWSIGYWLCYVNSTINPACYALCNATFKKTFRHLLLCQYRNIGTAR
Description: as §1, §2, §3, §4, §5, §6

| SMILES | Emax (M1 muscarinic receptor) [%] | M1 Activity (M1 muscarinic receptor) | Emax (M4 muscarinic receptor) [%] | M4 Activity (M4 muscarinic receptor) |
| --- | --- | --- | --- | --- |
| CC#CCOC(=O)N1C2CCC1CC(N1CCC3(CCN(C(=O)N(C)C)c4ccccc43)CC1)C2 (centres unmarked) [compound 29] | > 100 | +++ (activity was measured to be less than 2.0 μM) | 25 to 100 | +++ (activity was measured to be less than 2.0 μM) |
| CN(C)C(=O)N1CCC2(CCN(C3CC4CCC(C3)N4c3cnccn3)CC2)c2ccccc21 (centres unmarked) [compound 30] | 25 to 100 | +++ (activity was measured to be less than 2.0 μM) | 25 to 100 | +++ (activity was measured to be less than 2.0 μM) |
| Cc1nsc(N2C3CCC2CC(N2CCC4(CCN(C(=O)N(C)C)c5ccccc54)CC2)C3)n1 (centres unmarked) [compound 31] | 25 to 100 | +++ (activity was measured to be less than 2.0 μM) | 25 to 100 | +++ (activity was measured to be less than 2.0 μM) |
| CN(C)C(=O)N1CCC2(CCN(C3CCNCC3)CC2)c2ccccc21 [compound 33] | < 25 | + (activity was measured to be greater than 10.0 μM) | < 25 | + (activity was measured to be greater than 10.0 μM) |
| CC(=O)N1CCC2(CCN(C3CCNCC3)CC2)c2ccccc21 [compound 34] | < 25 | + (activity was measured to be greater than 10.0 μM) | < 25 | ++ (activity was measured to be from 2.0 μM to 10.0 μM) |
| CN(C)C(=O)N1CCC2(CCN(C3CCN(c4nccs4)CC3)CC2)c2ccccc21 [compound 35] | < 25 | ++ (activity was measured to be from 2.0 μM to 10.0 μM) | < 25 | ++ (activity was measured to be from 2.0 μM to 10.0 μM) |
| CC(=O)N1CCC2(CCN(C3CCN(c4ncc(C)s4)CC3)CC2)c2ccccc21 [compound 37] | < 25 | + (activity was measured to be greater than 10.0 μM) | < 25 | + (activity was measured to be greater than 10.0 μM) |
| COC(=O)N1CCC(N2CCC3(CC2)CN(C(=O)N(C)C)c2ccccc23)CC1 [compound 38] | 25 to 100 | ++ (activity was measured to be from 2.0 μM to 10.0 μM) | 25 to 100 | +++ (activity was measured to be less than 2.0 μM) |
| CCCOC(=O)N1CCC(N2CCC3(CC2)CN(C(=O)N(C)C)c2ccccc23)CC1 [compound 40] | 25 to 100 | +++ (activity was measured to be less than 2.0 μM) | 25 to 100 | +++ (activity was measured to be less than 2.0 μM) |
| CC(C)OC(=O)N1CCC(N2CCC3(CC2)CN(C(=O)N(C)C)c2ccccc23)CC1 [compound 41] | 25 to 100 | +++ (activity was measured to be less than 2.0 μM) | 25 to 100 | +++ (activity was measured to be less than 2.0 μM) |
| CN(C)C(=O)N1CC2(CCN(C3CCN(C(=O)OCC(F)F)CC3)CC2)c2ccccc21 [compound 42] | 25 to 100 | +++ (activity was measured to be less than 2.0 μM) | 25 to 100 | +++ (activity was measured to be less than 2.0 μM) |
| COCCOC(=O)N1CCC(N2CCC3(CC2)CN(C(=O)N(C)C)c2ccccc23)CC1 [compound 43] | 25 to 100 | +++ (activity was measured to be less than 2.0 μM) | 25 to 100 | +++ (activity was measured to be less than 2.0 μM) |
| C#CCCOC(=O)N1CCC(N2CCC3(CC2)CN(C(=O)N(C)C)c2ccccc23)CC1 [compound 44] | 25 to 100 | +++ (activity was measured to be less than 2.0 μM) | 25 to 100 | +++ (activity was measured to be less than 2.0 μM) |
| COC(=O)N1C2CCC1CC(N1CCC3(CC1)CN(C(=O)N(C)C)c1ccccc13)C2 (centres unmarked) [compound 45] | 25 to 100 | ++ (activity was measured to be from 2.0 μM to 10.0 μM) | 25 to 100 | +++ (activity was measured to be less than 2.0 μM) |
| CCOC(=O)N1C2CCC1CC(N1CCC3(CC1)CN(C(=O)N(C)C)c1ccccc13)C2 (centres unmarked) [compound 46] | 25 to 100 | +++ (activity was measured to be less than 2.0 μM) | 25 to 100 | +++ (activity was measured to be less than 2.0 μM) |
| CCCOC(=O)N1C2CCC1CC(N1CCC3(CC1)CN(C(=O)N(C)C)c1ccccc13)C2 (centres unmarked) [compound 47] | 25 to 100 | +++ (activity was measured to be less than 2.0 μM) | 25 to 100 | +++ (activity was measured to be less than 2.0 μM) |
| CC(C)OC(=O)N1C2CCC1CC(N1CCC3(CC1)CN(C(=O)N(C)C)c1ccccc13)C2 (centres unmarked) [compound 48] | 25 to 100 | +++ (activity was measured to be less than 2.0 μM) | 25 to 100 | +++ (activity was measured to be less than 2.0 μM) |
| CN(C)C(=O)N1CC2(CCN(C3CC4CCC(C3)N4C(=O)OCC(F)F)CC2)c2ccccc21 (centres unmarked) [compound 49] | 25 to 100 | +++ (activity was measured to be less than 2.0 μM) | 25 to 100 | +++ (activity was measured to be less than 2.0 μM) |
| COCCOC(=O)N1C2CCC1CC(N1CCC3(CC1)CN(C(=O)N(C)C)c1ccccc13)C2 (centres unmarked) [compound 50] | 25 to 100 | +++ (activity was measured to be less than 2.0 μM) | 25 to 100 | +++ (activity was measured to be less than 2.0 μM) |
| C#CCCOC(=O)N1C2CCC1CC(N1CCC3(CC1)CN(C(=O)N(C)C)c1ccccc13)C2 (centres unmarked) [compound 51] | 25 to 100 | +++ (activity was measured to be less than 2.0 μM) | 25 to 100 | +++ (activity was measured to be less than 2.0 μM) |
